Eight molecules from patent publication US7375130B2, “Antidiabetic compounds comprising benzofuran and benzothiophene derivatives” (Merck Patent Gesellschaft mit beschrankter Haftung, priority 2003, dated 2008) can be followed below.

One experiment has as its system INS1. Kind of experiment: Insulin secretion test (SEC INS1) according to Endocrinology, 1992 vol. 130 (1) pp. 167-178. The experiment is classed as cell-based. The settings on record: Rattus norvegicus, compounds tested at 10^-5 M, read-out: SEC INS1 (insulin-secreting activity). The method, then:
Insulin Secretion Test According to the Method Described in Endocrinology, 1992 vol. 130 (1) pp. 167-178
The compounds according to the invention were tested at 10^−5 M.
The insulin-secreting activities are collated in Table B.

Experiment [1] has as its system isolated islets of Langerhans. Kind of experiment: Insulin secretion in isolated rat islets of Langerhans in static incubation, as a function of the glucose concentration. The experiment is classed as cell-based. The settings on record: 90 minutes incubation, RIA, relative to glucose alone; for Insulin secretion stimulation factor, Product + G 2.8 mM: glucose 2.8 mM; for Insulin secretion stimulation factor, Product + G 8 mM: glucose 8 mM. The protocol: Study of the Activity on Isolated Rat Islets
Effect of the chemical compounds on insulin secretion as a function of the glucose concentration, in vitro, in isolated islets of Langerhans in static incubation (Table C):
The islets of Langerhans obtained by digestion of exocrine pancreatic tissue with collagenase, and then purified on Ficoll gradient, are incubated for 90 minutes in the presence of two concentrations of glucose, (2.8 mM or 8 mM), in the presence or absence of the chemical compound. The insulin secretion is assayed by RIA in the incubation medium.
The potential of the various chemical compounds to stimulate insulin secretion is estimated by calculating the stimulation factor*.
A compound stimulates the secretion of insulin if this factor is greater than or equal to 130% for a given dose of glucose.
where: • G=secretion of insulin (pmol/min. islet) in the presence of glucose alone • G+product=secretion of insulin (pmol/min. islet) in the presence of the same concentration of glucose and of the test chemical compound.

For the molecule `CCOC(=O)c1sc2ccccc2c1OCC(=O)c1ccccc1OC` [Product 3], in the experiment with INS1, the activity at 10 µM worked out at 320%.
Take `CCOC(=O)c1sc2ccccc2c1OCC(=O)c1ccc(F)cc1` [Product 7]: the activity at 10 µM in the experiment on INS1 worked out at 257%.
For the molecule `CCOC(=O)c1sc2ccccc2c1OCC(=O)c1cccc(OC)c1` [Product 8], the activity at 10 µM with INS1 worked out at 252%.
Still for that read-out and setting: under `CCOC(=O)c1sc2ccccc2c1OC(C)C(=O)c1ccccc1` (stereo not drawn) [Product 10] stands 225%; under `CCOC(=O)c1sc2ccccc2c1OCC(=O)c1ccc(OC)cc1OC` [Product 11], 258%.
Turning to `CCOC(=O)c1sc2ccccc2c1OCC(=O)C(C)(C)C` [Product 12], the activity at 10 µM in the experiment with INS1 amounted to 230%. In addition, the “Insulin secretion stimulation factor, Product + G 2.8 mM” value in experiment [1] (dose 10^-5 M) came to 93%; in experiment [1] (dose 10^-6 M), 90%. The “Insulin secretion stimulation factor, Product + G 8 mM” value in experiment [1] (dose 10^-5 M) is listed as 186%; in experiment [1] (dose 10^-6 M), 189%.
Take `CCOC(=O)c1sc2ccccc2c1OCC(=O)c1ccc2ccccc2c1` [Product 13]: the activity at 10 µM in the experiment on INS1 came to 240%.
As to `CCOC(=O)c1sc2ccccc2c1OCc1cccc(C#N)c1` [Product 29], the activity at 10 µM with INS1 is 249%.
